# Test results as given in patent publication US4405717A, “Recovery of acetic acid from a fermentation broth” (priority 1981, dated 1983).
# Where two headings read alike, the source gives them in different places.
# Experiments:
# [1] = for dissolution of the amine: aqueous calcium acetate solution, carbon dioxide added
# Description: In carrying out the process of this invention, a molar equivalent of a water-soluble tertiary amine carbonate is added to the calcium acetate solution. The tertiary amine carbonate used in the process can be generated by the addition of carbon dioxide to a solution or suspension of the tertiary amine in water. It is most convenient to generate the tertiary amine carbonate in situ by first adding a molar equivalent of the tertiary amine to the calcium acetate solution. Then carbon dioxide is added to the mixture to generate the tertiary amine carbonate directly in the calcium acetate solution. The addition of the carbon dioxide is carried out by any convenient means. Either solid or gaseous carbon dioxide is added to the solution at atmospheric pressure or at higher pressures in a pressure vessel.
# To a solution of 20 g of acetic acid and 400 ml of water was added 16 g of calcium carbonate. […] To this was added 62 g of tributylamine.
# [2] = Extraction of trialkylammonium acetates: distribution coefficient (KD) between water and solvents; format: physicochemical; details: conclusion from Table I
# Description: In one embodiment of this invention, the trialkylammonium acetate is extracted from the solution by means of an organic solvent. Polar solvents, such as esters, alcohols, ketones, ethers or chlorinated hydrocarbons can be used. The solvents should be insoluble or sparingly soluble in water and be good extractants for the acetate. This extraction ability is determined by measuring the amount of acetic acid in each phase when an acetate solution is extracted with an equal volume of extractant. The extraction ability is expressed as a Distribution Coefficient (KD) which is defined by the formula: [formula] The solvent should have a KD greater than about 0.4 and preferably greater than about 1.
# The efficiency with which trialkylammonium acetates could be extracted from water solutions with various solvents was measured by determination of the KD of the salts between water and the solvents according to the following procedure:
# A mixture of 50 ml of a 5% aqueous solution of the acetate formed by the procedure of Example 1 and 50 ml of solvent in a 250-ml Erlenmeyer flask was shaken in a wrist-action shaker for 2 hours at room temperature. The mixture was transferred to a separatory funnel where it was allowed to stand for an additional hour before the phases were separated, weighed and analyzed. […]
# [3] = Thermal decomposition (dissociation) of trialkylammonium acetates; format: physicochemical
# Description: In the final step of the process, the trialkylammonium acetate is heated to cause dissociation of the acetate with liberation of acetic acid and the amine. The temperature at which the acetate decomposes depends somewhat on the tertiary amine used. When tributylamine is employed, the acetate decomposes when held in a bath in the range of about 170°-190° C. with distillation of the acetic acid in a relatively pure form. The residue after distillation of the acid is tributylamine which can be recycled for use in the extraction process.
# The syrup obtained in Example 1 was placed in a flask fitted with a 7-cm Vigreux column attached to a water-cooled condenser. The flask was heated in an oil bath to 180° C. at which temperature decomposition of the acetate occurred. The yield of acetic acid distilling at 115°-118° C. was 18.3 g which represents a 91.5% recovery of the acetic acid present in the solution.
# When the process of Example 2 was repeated with the syrups containing trimethylammonium acetate, triethylammonium acetate and tripropylammonium acetate, the products that were obtained were either azeotropes or mixtures of the tertiary amine and acetic acid.
compound,measurement,setting,value
CN(C)c1ccncc1 [4-dimethylaminopyridine],dissolution of the amine,[1],all of the amine went into solution
"CC(=O)O.CCCCN(CCCC)CCCC [Tributylammonium Acetate, tributylammonium acetate]",extraction from water with the solvents (in words),[2],much more efficient than any of the other combinations
same,decomposition temperature of the acetate,"[3]; heated in an oil bath, Example 2",180 °C
CN(C1CCCCC1)C1CCCCC1 [dicyclohexylmethylamine],dissolution of the amine,[1],all of the amine went into solution
"CCCCCCCCCCCCN(C)C [dimethyldodecylamine, N,N-dimethyldodecylamine]",behaviour of the salt on distillation,[3]; salts prepared from long-chain amines,distillation was accompanied by unknown side-reactions
CCCCCN(CCCCC)CCCCC [triamylamine],dissolution of the amine,[1],the amine did not dissolve
CCCCN(CCCC)CCCC [tributylamine],dissolution of the amine,[1]; listed as Tributylamine,dissolves readily
CCCCCCN(CCCCCC)CCCCCC [trihexylamine],water solubility of the amine carbonate,[1],do not form carbonates which are sufficiently soluble in water
same,dissolution of the amine,[1],the amine did not dissolve
CC(C)CCCCCN(CCCCCC(C)C)CCCCCC(C)C [triisooctylamine],dissolution of the amine,[1],the amine did not dissolve
CN(C)C [trimethylamine],water solubility of the amine carbonate,[1]; general statement,form carbonates which are water soluble
CCCCCCCCN(CCCCCCCC)CCCCCCCC [trioctylamine],water solubility of the amine carbonate,[1],do not form carbonates which are sufficiently soluble in water
CCCN(CCC)CCC [tripropylamine],water solubility of the amine carbonate,[1],form carbonates which are water soluble
same,dissolution of the amine,[1],all of the amine went into solution
